The record followed here is publication PMC2749132 (The Journal of Biological Chemistry, 2009).

The test addresses T1, MBP-MtHPS (MtHPS, HPS, halimadienyl-diphosphate synthase, Rv3377c) (Mycobacterium tuberculosis, UniProt O50406).
T1 sequence (O50406 1-501): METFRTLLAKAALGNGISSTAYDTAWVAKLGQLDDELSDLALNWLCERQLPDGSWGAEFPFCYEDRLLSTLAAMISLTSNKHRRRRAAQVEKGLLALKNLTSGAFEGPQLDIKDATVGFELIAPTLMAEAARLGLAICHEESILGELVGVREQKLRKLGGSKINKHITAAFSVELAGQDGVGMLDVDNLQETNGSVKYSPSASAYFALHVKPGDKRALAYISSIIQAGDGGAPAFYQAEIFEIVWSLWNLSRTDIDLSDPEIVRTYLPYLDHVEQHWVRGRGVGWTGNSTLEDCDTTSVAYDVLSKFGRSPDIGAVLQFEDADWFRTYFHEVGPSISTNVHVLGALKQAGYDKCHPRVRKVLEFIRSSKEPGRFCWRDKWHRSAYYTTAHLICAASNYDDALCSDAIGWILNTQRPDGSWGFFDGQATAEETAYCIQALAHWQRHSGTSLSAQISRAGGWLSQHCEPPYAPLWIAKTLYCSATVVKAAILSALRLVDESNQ
The test is described as follows: GC-FID conversion of GGPP to HPP, substrate inhibition equation. Format: biochemical. As to conditions: 0.1 mM Mg2+, pH 7.75, 25 nM enzyme, 1 min.

On to `CC(C)=CCC/C(C)=C/CC/C(C)=C/CC/C(C)=C/COP(=O)(O)OP(=O)(O)O` [1a, GGPP], for which the Ki is 18 ± 6 µM.
